pEC50, pKi: −log10 of the molar value.
Assays:
h-EP2 [1] = molecular target: T1, h-EP2 (Homo sapiens, UniProt P43116); experiment: EP2 total cAMP assay in HEK293-EBNA cells transfected with pCEP4-hEP2; type: cell-based; settings: 1 hour 37° C.
Protocol: Therefore, the compounds of the invention are tested for their ability in modulating cAMP levels in cells over-expressing EP2 or EP4 (Example 25 below) receptors.
(§1) Compounds of the invention are tested in a total cAMP assay as follows. HEK293-EBNA cells transfected with pCEP4-hEP2 receptors are seeded in 96 well opaque plate (Costar #3917) at 4×10^4 cells per well in 100 μl of culture medium (D-MEM/F12 supplemented with 10% FBS, […] L-glutamine, and 250 μg/ml of hygromycin; all from Gibco BRL) and incubated at 37° C. After overnight incubation, the medium is removed from each well and replaced with 45 μl of assay medium consisted of phenol red free D-MEM/F-12, 0.1% BSA (Gibco BRL) and 0.1 mM 3-isobutyl-1-methyl-xanthine (Sigma). After 15 minutes of incubation at 37° C., 16-16-dimethyl PGE-2 or compounds at desired concentrations in 20 μl of assay medium are added to cells and further incubated at 37° C. for 1 hour. Total cAMP (intra- and extra-cellular) is measured by using a cAMP-screen ELISA System (Tropix, #CS1000).

h-EP2 [2] = molecular target: T1, h-EP2; experiment: Prostaglandin EP2 receptor binding assay (3H-PGE2 SPA); settings: EP2 receptor membranes, 20 nM 3H-PGE2, pH 6.0, 2 hrs room temperature
Protocol: Compounds of the invention were tested in an EP2 receptor binding assay of the following protocol. As referred to herein, the term an “EP2 receptor binding assay” designates the following protocol.
(§2) A mixture containing 20 μg of EP2 receptor membranes, 0.5 mg of wheat germ agglutinin coated PVT-SPA beads, with or without compound of the invention (25 μl per well) or 10 μM of cold PGE2 at 1% DMSO and 20 nM ^3H-PGE2 in assay buffer containing 25 mM MES, 10 mM MgCl2, 1 mM EDTA, pH 6.0 are incubated in Corning 3600 plates on a plate shaker for 2 hrs at room temperature. ^3H-PGE2 binding is evaluated by counting the plates on the top count using the ^3H SPA dpm2 program. The percentage of binding and Ki value for inhibitors are calculated based on the one site competition parameter using the Graphpad® prism program.

h-EP4 [3] = molecular target: T2, h-EP4 (Homo sapiens, UniProt P35408); experiment: EP4 receptor binding assay (3H-PGE2 SPA); settings: EP4 receptor membranes, 20 nM 3H-PGE2, pH 6.0, 2 hrs room temperature
Protocol: Compounds of the invention were tested in an EP4 receptor binding assay of the following protocol.
as §2, with “EP4” for “EP2”, “compounds” for “compound”

h-EP4 [4] = molecular target: T2, h-EP4; experiment: EP4 total cAMP assay in HEK293-EBNA cells transfected with hEP4; type: cell-based; settings: 1 hour 37° C.
Protocol: as §1, with “pCFP4-hEP4” for “pCEP4-hEP2”

[5] = test system: hepatitis B viral replication; settings: oral administration, chronic hepatitis B patients; cited from earlier work

T1 sequence (P43116 whole entry): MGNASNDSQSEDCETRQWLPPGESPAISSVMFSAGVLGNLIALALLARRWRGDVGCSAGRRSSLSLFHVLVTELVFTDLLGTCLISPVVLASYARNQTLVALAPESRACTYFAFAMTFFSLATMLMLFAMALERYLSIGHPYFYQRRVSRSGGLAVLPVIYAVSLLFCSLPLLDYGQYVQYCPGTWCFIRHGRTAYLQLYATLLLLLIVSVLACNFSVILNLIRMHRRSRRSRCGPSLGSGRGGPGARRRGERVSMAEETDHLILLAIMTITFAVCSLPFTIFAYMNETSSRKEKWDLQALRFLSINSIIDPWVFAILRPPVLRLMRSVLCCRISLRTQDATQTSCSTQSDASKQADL
T2 sequence (P35408 whole entry): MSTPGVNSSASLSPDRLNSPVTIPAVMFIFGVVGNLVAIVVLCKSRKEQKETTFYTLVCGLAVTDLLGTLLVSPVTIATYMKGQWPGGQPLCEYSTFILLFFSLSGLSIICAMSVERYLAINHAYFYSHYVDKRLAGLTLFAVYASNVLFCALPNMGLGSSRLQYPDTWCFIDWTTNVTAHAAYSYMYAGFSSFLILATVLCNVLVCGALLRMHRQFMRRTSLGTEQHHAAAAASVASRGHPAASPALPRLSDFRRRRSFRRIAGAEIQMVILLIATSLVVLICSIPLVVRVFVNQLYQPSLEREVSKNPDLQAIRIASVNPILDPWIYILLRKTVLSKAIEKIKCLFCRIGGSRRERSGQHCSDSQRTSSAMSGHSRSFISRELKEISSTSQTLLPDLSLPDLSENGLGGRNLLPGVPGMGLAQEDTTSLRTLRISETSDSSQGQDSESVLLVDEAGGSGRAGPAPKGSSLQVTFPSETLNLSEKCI

| Structure (SMILES) | pKi (h-EP2 [2]) | pKi (h-EP4 [3]) | further results |
| --- | --- | --- | --- |
| CCCCCC(O)CCNN(CCc1ccc(C(=O)O)cc1)C(C)=O (stereo not drawn) [Example 2, 4-{2-[1-acetyl-2-(3-hydroxyoctyl)hydrazino]ethyl}benzoic acid] | 4.48 | 6.40 | pEC50 (h-EP2 [1]): 5.22 |
| CC(=O)N(CCc1ccc(C(=O)O)cc1)NCCC(O)Cc1cccc(C(F)(F)F)c1 (stereo not drawn) [Example 4, 4-[2-(1-acetyl-2-{3hydroxy-4-[3-(trifluoromethyl)phenyl]butyl}hydrazino)ethyl]benzoic acid] | 5.35 | 6.28 | pEC50 (h-EP4 [4]): 9.40 |
| CC(C)C(=O)N(CCc1ccc(C(=O)O)cc1)NCCC(O)Cc1cccc(C(F)(F)F)c1 (stereo not drawn) [Example 6, 4-[2-(2-{3-hydroxy-4-[3-(trifluoromethyl)phenyl]butyl}-1-isobutyryl hydrazino)ethyl]benzoic acid] |  | 6.48 |  |
| CC(=O)N(CCc1ccc(C(=O)O)cc1)NCCC(O)Cc1cccc(C#Cc2ccccc2)c1 (stereo not drawn) [Example 7, 4-[2-(1-acetyl-2-{3-hydroxy-4-[3-(phenylethynyl)phenyl]butyl}hydrazino)ethyl]benzoic acid] | 5.38 | 7.35 | pEC50 (h-EP4 [4]): 9.82 |
| CC(=O)N(CCc1ccc(C(=O)O)cc1)NCCC(O)Cc1cccc(-c2ccccc2)c1 (stereo not drawn) [Example 8, 4-(2-{1-acetyl-2-[4-(1,1′-biphenyl-3-yl)-3-hydroxybutyl]hydrazino}ethyl)benzoic acid] |  | 6.94 |  |
| CC(=O)N(CCc1ccc(C(=O)O)cc1)NCCC(O)Cc1cccc(Br)c1 (stereo not drawn) [Example 9, 4-(2-{1-acetyl-2-[4-(3-bromophenyl)-3-hydroxybutyl]hydrazino}ethyl) benzoic acid] |  | 6.83 |  |
| CC(=O)N(CCc1ccc(C(=O)O)cc1)NCCC(O)Cc1cccc(I)c1 (stereo not drawn) [Example 10, 4-(2-{1-acetyl-2-[3-hydroxy-4-(3-iodophenyl)butyl]hydrazino}ethyl)benzoic acid] |  | 7.01 |  |
| C#Cc1cccc(CC(O)CCNN(CCc2ccc(C(=O)O)cc2)C(C)=O)c1 (stereo not drawn) [Example 16, 4-(2-{1-acetyl-2-[4-(3ethynylphenyl)-3-hydroxybutyl]hydrazino}ethyl) benzoic acid] |  | 6.88 |  |
| CCCCC[C@H](O)/C=C/[C@H]1[C@H](O)CC(=O)[C@@H]1C/C=C\CCCC(=O)O [PGE2, Prostaglandin E2] |  |  | patients with sustained loss of viral replication [5]: 47% |

— patent US7465755B2, “Hydrazide derivatives as prostaglandin receptors modulators” (Laboratoires Serono SA, priority 2003, dated 2008)
